Reference: patent US20230348578A1, “CONFORMATION-SPECIFIC ANTIBODIES THAT BIND TAU PROTEIN AND USES THEREOF” (Beth Israel Deaconess Medical Center, Inc., priority 2020, published 2023)
Where a SMILES comes first, the peptide text is derived from it. The star is where a group is joined. Cbz = O=C(OCc1ccccc1)*; CH2F = FC*

Tested on: primary neurons
Assay: Death of primary neurons with purified cis P-tau
Type: cell-based

COC(=O)C[C@H](NC(=O)[C@H](C)NC(=O)[C@@H](NC(=O)OCc1ccccc1)C(C)C)C(=O)CF [Z-VAD-FMK] (Cbz-Val-Ala-Asp(OMe)-CH2F)
death in primary neurons induced by purified cis P-tau: blocked
